The record followed here is patent US20250170082A1, “HPDL INHIBITORS AND USES THEREOF” (NEW YORK UNIVERSITY, priority 2022, published 2025).

“Also recorded” adds a separate entry of the source.

One data set has as its system C57BL/6 pups. Description: Pup survival after daily oral gavage. The format is in vivo.
In data set [1] the test system is MIAPACA2 and PATU-8902 cells. Description: 3D growth assay (CyQUANT) in MIAPACA2 and PATU-8902 cells. The format is cell-based. Particulars: 3 days. The protocol:
2,500 cells were seeded into a low-attachment 96-well plate containing DMEM+10% dialysed FBS and 3% Matrigel. […] To measure 3D growth with the CyQUANT Cell Proliferation Assay kit, plates were frozen at −80° C., thawed at room temperature, and equal volumes of 2× CyQUANT reagent+lysis buffer was added to the wells. As a control, wells containing medium and no cells were used as blanks. CyQUANT measurements were performed as described in the manufacturer's instructions.
2,500 cells were seeded into a low-attachment 96-well plate containing DMEM+10% dialysed FBS and 3% Matrigel. […] To measure 3D growth with the CyQUANT Cell Proliferation Assay kit, plates were frozen at −80° C., thawed at room temperature, and equal volumes of 2×CyQUANT reagent+lysis buffer was added to the wells. Wells containing medium and no cells were used as blanks.

The next data set relates to cells. Description: Cellular uptake of 4-HMA and incorporation into CoQ10. Type of data set: cell-based.
Data set [2] relates to MIAPACA2 and PATU8902 xenografts. The experiment in a line: PDAC pancreas orthotopic xenografts in athymic nude mice. The format is in vivo. On the procedure: Pancreas orthotopic xenografts were established as follows. In brief, 6-week-old female immunocompromised athymic nude mice (CrTac:NCr-Foxnlnu) were orthotopically injected with tumor cells into the pancreas. Mice were anaesthetized with ketamine (120 mg kg−1) and xylazine (10 mg kg−1) before surgery. MIAPACA2 or PATU-8902 ([…]) were suspended in 20 μl of 50% growth factor-reduced Matrigel (BD Science), and injected into the pancreas. Mice were treated with buprenorphine every 12 h after surgery for 48 h. […] Both compounds were dissolved into mice water every day to avoid degradation. Mice were sacrificed when tumor development led to significant deterioration of their condition.

Data set [3] addresses T1, human His-tagged HPDL (4-hydroxyphenylpyruvate dioxygenase-like), recombinant, from expiSF9 insect cells (Homo sapiens, UniProt Q96IR7).
T1 construct: His tag; made in house; host or cells: expiSF9 insect cells (virus infection)
T1 sequence (Q96IR7 1-371): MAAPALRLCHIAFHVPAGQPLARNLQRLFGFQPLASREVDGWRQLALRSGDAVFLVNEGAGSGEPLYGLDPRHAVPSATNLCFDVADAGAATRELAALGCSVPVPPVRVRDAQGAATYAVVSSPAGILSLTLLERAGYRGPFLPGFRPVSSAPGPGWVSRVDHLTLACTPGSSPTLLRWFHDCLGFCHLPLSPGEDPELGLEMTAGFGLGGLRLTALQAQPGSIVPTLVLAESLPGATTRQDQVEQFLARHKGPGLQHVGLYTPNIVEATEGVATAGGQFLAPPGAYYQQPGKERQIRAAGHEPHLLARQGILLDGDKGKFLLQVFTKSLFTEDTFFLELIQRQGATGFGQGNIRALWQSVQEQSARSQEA
Description: Inhibition of HPDL activity: His-tagged HPDL incubated with HPPA at various inhibitor concentrations, 4HMA production followed by GC-MS. Type of data set: biochemical. The text has this:
The four curves in Panel (A) represent dose-response curves for, from left to right, ibuprofen, dopamine, montelukast, and methyldopa, respectively.
A culture of expiSF9 cells (5×10^6 viable cells/mL and ≥90% viability) were infected with high-titer virus (human His-tagged HPDL).

The subject of another data set is MIAPACA2 cells. Description: 3D growth assay (CyQUANT) in MIAPACA2 cells, ibuprofen vs aspirin. As to conditions: 100 uM added daily, 3 days. Type of data set: cell-based. The protocol:
This experiment evaluates if COX inhibition is responsible for the decrease of cell growth in 3D. The ability of aspirin, another COX inhibitor, to affect cell growth of HPDL-dependent cell lines in 3D was evaluated. 2,500 cells were seeded into a low-attachment 96-well plate containing DMEM+10% dialysed FBS and 3% Matrigel. […] To measure 3D growth with the CyQUANT Cell Proliferation Assay kit, plates were frozen at −80° C., thawed at room temperature, and equal volumes of 2× CyQUANT reagent+lysis buffer was added to the wells. Wells containing medium and no cells were used as blanks.

In a further data set the target is T2, HPDL (Homo sapiens, UniProt Q96IR7).
T2 construct: His tag; made in house; host or cells: expiSF9 insect cells (inferred: the only HPDL preparation described)
T2 sequence (Q96IR7 1-371): T1 sequence (Q96IR7 1-371)
The experiment in a line: Fluorescence based thermal shift assay (FTS) on purified HPDL. Type of data set: binding. Particulars: 10 μM compound, 1 μM HPDL. On the procedure:
This experiment evaluates an FDA approved library of small molecules by thermal shift in order to identify binders of HPDL. Fluorescence based thermal shift assay (FTS) was conducted on Bio-Rad real time PCR detection system. A total of 20 μL/well solution was prepared containing 1 μM HPDL, 2× fluorescent dye (Applied Biosystems, Life Technologies) and small molecules at […] concentration in buffer (50 mM HEPES pH 7.5 and 20 μM FeSO4). The plate was heated at 1% of ramp rate (−1.5° C./min) from 25 to 95° C., and Rox was selected as reporter for detection of fluorescence intensity. The melting temperature was recorded for every compound and compared to the reference HPDL melting temperature.
This experiment evaluates if COX inhibition is responsible for the decrease of cell growth in 3D. The ability of aspirin, another COX inhibitor, to bind HPDL was evaluated using thermal shift assay. Fluorescence based thermal shift assay (FTS) was conducted on Bio-Rad real time PCR detection system. […] The plate was heated at 1% of ramp rate (˜1.5° C./min) from 25 to 95° C., and Rox was selected as reporter for detection of fluorescence intensity. The melting temperature was recorded for every compound and compared to the reference HPDL melting temperature.

A further data set concerns the target T3, His-tagged HPDL (Homo sapiens, UniProt Q96IR7).
T3 sequence (Q96IR7 1-371): T1 sequence (Q96IR7 1-371)
As to conditions: for compound amount at 50% activity level (rank among the four dose-response curves): FIG. 4(A) dose-response curves.

The test system of data set [4] is MIAPACA2 expressing control or HPDL sgRNA. Description: 3D growth assay in MIAPACA2 expressing control or HPDL sgRNA, with or without coHPDL. The format is cell-based. Particulars: ibuprofen 100 uM added daily, 3 days. The protocol: This experiment evaluates if HPDL inhibition in cells is responsible for the decrease of cell growth in 3D. […] 2,500 cells were seeded into a low-attachment 96-well plate containing DMEM+10% dialysed FBS and 3% Matrigel. […] To measure 3D growth with the CyQUANT Cell Proliferation Assay kit, plates were frozen at −80° C., thawed at room temperature, and equal volumes of 2× CyQUANT reagent+lysis buffer was added to the wells. Wells containing medium and no cells were used as blanks.

Turning to `O=C(O)C(O)c1ccc(O)cc1` (stereo not drawn) [4HMA, 4-hydroxymandelate], in the data set on C57BL/6 pups (4HMA 10 mg/kg with ibuprofen 200 mg/kg daily oral gavage), the “rescue of ibuprofen-induced lethality” value is listed as “rescues ibuprofen-induced lethality in pups”. Also, in data set [1] (ibuprofen 100 uM and 4HMA 1 mM added daily), the “rescue of ibuprofen-induced decrease of 3D cell growth” value is on record as “rescues ibuprofen-induced decreases cell growth in 3D”. Also, in the data set on cells, the “uptake by cells and incorporation into CoQ10” value was “readily taken up by cells and incorporated into CoQ10”. Also, in data set [2] (4HMA 10 mg/kg with ibuprofen 100 mg/kg in drinking water), the “rescue of ibuprofen-induced decrease of xenograft growth” value is given as “can rescue this decrease”.
What is called IC50 is the concentration that gives 50% inhibition. Consider `CC(C)(O)c1ccccc1CC[C@@H](SCC1(CC(=O)O)CC1)c1cccc(/C=C/c2ccc3ccc(Cl)cc3n2)c1` [D00005 row 1, montelukast], for which the half-maximal inhibitory concentration (IC50) in [3] was greater than 100 µM.
Consider `NCCc1ccc(O)c(O)c1` [D00005 row 2, dopamine], for which, in [3], the IC50 turned out to be 41.3 µM.
On the same count and under the same terms, then `C[C@](N)(Cc1ccc(O)c(O)c1)C(=O)O` [D00005 row 3, methyldopa], with greater than 100 µM; and `CC(C)Cc1ccc(C(C)C(=O)O)cc1` (stereo not drawn) [D00005 row 4, ibuprofen], with 16.6 µM.
`CC(=O)Oc1ccccc1C(=O)O` [aspirin]: the 3D cell growth entry with MIAPACA2 cells was “does not affect cell growth of HPDL-dependent cell lines”. Besides, the “HPDL binding by thermal shift” value on HPDL was “does not act HPDL binder”.
As to `NCCc1ccc(O)c(O)c1` [dopamine], the “inhibition of HPDL activity” value against His-tagged HPDL (12 ng/μL HPDL, 10 μM HPPA, 1 h at 37° C., various inhibitor concentrations) is “inhibit the dioxygenase HPDL”. In addition, on His-tagged HPDL, the “compound amount at 50% activity level (rank among the four dose-response curves)” value is “second least”.
Turning to `CC(C)Cc1ccc(C(C)C(=O)O)cc1` (stereo not drawn) [ibuprofen], the 3D cell growth entry is reported as “affects cell growth of HPDL-dependent cell lines in 3D” in the data set with MIAPACA2 cells and “selectively decreases cell growth of HPDL-dependent cell lines in 3D” in data set [1] (ibuprofen 100 uM added daily). Moreover, the “sensitivity of 3D growth to ibuprofen on HPDL deletion” value in data set [4] is on record as “HPDL deletion reduces sensitivity to ibuprofen treatment in 3D”. Besides, in the data set with C57BL/6 pups (ibuprofen 200 mg/kg daily oral gavage, started at 3, 5 and 10 days), the “pup development and survival” value was “affects the development of pups; also recorded: ibuprofen-induced lethality in pups”. For the same compound, in data set [2] (ibuprofen 100 mg/kg in drinking water), the “orthotopic pancreatic tumor growth (tumor weight)” value is given as “affects the growth of HPDL-dependent PDAC orthotopic xenografts”. The “compound amount at 50% activity level (rank among the four dose-response curves)” value on His-tagged HPDL is recorded as “least”.
